Test results from patent publication US10071989B2, “Substituted cinnamamide derivative, preparation method and use thereof” (TASLY PHARMACEUTICAL GROUP CO., LTD., priority 2011, dated 2018).
Entries after “also recorded” stand apart in the source; their conditions may differ. Structures can show the parent of a compound that is named as a salt. Where two headings read alike, the source gives them in different places. Marks after values point to notes of the source that are not given here.

How the values were obtained:
Type in all cases: in vivo
C57BL/6 mice [1] = assay: "Acquired despair" depression model of tail suspension test in mice; conditions: for Effect on immobility time in tail suspension test (in words): 10 mg/kg intragastric for 7 days, compared with the solvent control group
Description: 30 min after administration at 7th day, the mice was fixed on a sustainer with a rubberized cloth at 1 cm close to the end of the tail of mice, making the mice hanged upside down. The head of the mice was about 30 cm above the table and its sight was separated from the neighboring mouse with a plate. Usually, the mice might manage to struggle in hopes of overcoming the abnormal body position. […] The accumulated immobility time within 6 min of each mouse was observed, which was regarded as “despair time”.
(§1) 130 mice were randomly selected to observe the number of their autonomic activity. The method was the same with that of Experiment 1. 108 mice with the number of autonomic activity between 70˜140 were screened out, divided randomly into 9 groups, and intragastrically administrated with the drug compounds at a dose listed in Table 2, one time daily for 7 days consecutively. The solvent control group was administrated with 2% Tween-80 aqueous solution in the same volume. 30 min after administration at 6th day, the number of the autonomic activity of each mouse was observed. 30 min after administration at 7th day, the immobility time in tail suspension test was observed. The method was the same with that in Experiment 1.

C57BL/6 mice [2] = assay: Forced swimming experiment in mice; conditions: 10 mg/kg intragastric once daily for 7 days; 30 min after last administration; end of 2nd min to 6th min
Description: After 1˜2 days of adaptive feed, 80 male C57BL/6 mice, aged 6˜8 weeks and weighing 18˜22 g, were placed into the YLS-1A multi-functional mice autonomic activity recorder. After 1 min of adaption, the activity of the mice was counted within a time period from the end of 1st min to 4th min. 60 mice with the number of autonomic activity between 70˜140 were screened out, divided randomly into 6 groups, and intragastrically administrated with the drug compounds at a dose listed in Table 5, one time daily for 7 days consecutively. The solvent control group was administrated with 2% Tween-80 aqueous solution in the same volume. After the administration at 6th day, the mice were placed into a cylindrical aquarium with a water depth of 10 cm and 25° C. to force the mice to swim. After 15 min, the mice were taken out, dried and returned to the cage. 24 hours later, 30 min after the last intragastrical administration, the mice were placed into a glass bottle with a diameter of 10 cm, a height of 30 cm and a water depth of 10 cm, and the temperature of the water in the bottle was at 25° C. The mice were separated with an opaque partition, so as not to influence each other. After 2 min of adaption, an accumulated immobility time from the end of 2nd min to 6th min was recorded.

C57BL/6 mice [3] = assay: Depression model test of anti-blepharoptosis caused by reserpine (akinesia, blepharoptosis, shell temperature); conditions: for Blepharoptosis, “out-of-circle” ratio and shell temperature after reserpine (effect in words) / Change in the shell temperature (ΔT ° C.) / Degree of eye-closure / Change in the shell temperature (T ° C.) / responders at 10 mg/kg: 10 mg/kg intragastric 7 days; for Blepharoptosis, “out-of-circle” ratio and shell temperature after reserpine (effect in words): compared with the solvent control group; for Change in the shell temperature (ΔT ° C.) / Degree of eye-closure / Change in the shell temperature (T ° C.) / responders at 10 mg/kg: reserpine 4 mg/kg i.p.; for Change in the shell temperature (ΔT ° C.) / Change in the shell temperature (T ° C.): abdomen, two hours after reserpine; for Change in the shell temperature (ΔT ° C.) / Degree of eye-closure / Change in the shell temperature (T ° C.): ±SD; for Degree of eye-closure: score 0-4 one hour after reserpine; for responders at 10 mg/kg: Mus musculus, po, 1 h, one hour after reserpine, 7.5 cm circle, 15-second observation, read-out: “out-of-circle” ratio; for Blepharoptosis, shell temperature and “out-of-circle” ratio compared with Compound I-1 (in words): compared with I-1, p<0.05, p<0.01; for Improving akinesia, blepharoptosis and shell temperature: ranking among the tested compounds (in words): within the experiment
Description: 120 male C57BL/6 mice were randomly selected to observe the number of their autonomic activity. The mice was placed into the YLS-1A multi-functional mice autonomic activity recorder, and after 1 min of adaption, the activity of the mice was counted within a time period from the end of 1st min to 4th min. 96 mice with the number of autonomic activity between 70˜140 were screened out, divided randomly into 8 groups, and intragastrically administrated with the drug compounds at a dose listed in Table 3, one time daily for 7 days consecutively. The solvent control group was administrated with 2% Tween-80 aqueous solution in the same volume. Except the normal control group, 30 min after the last administration, each group was injected intraperitoneally with reserpine at a dose of 4 mg/kg. Next, akinesia, blepharoptosis and shell temperature were observed.
I Akinesia: one hour after intraperitoneal injection of reserpine, the mice were placed at the center of a circle with a diameter of 7.5 cm for a 15-second observation to calculate the “out-of-circle” ratio.
II Blepharoptosis: one hour after intraperitoneal injection of reserpine, the eye closure of mice was observed and scored by the following standard: eyelids open, 0; eyelids ¼ closed, 1; eyelids 2/4 closed, 2; eyelids ¾ closed, 3; eyelids closed completely, 4.
III Shell temperature: two hours after intraperitoneal injection of reserpine, the shell temperature of the abdomen of the mice was measured.
120 C57BL/6 mice were randomly selected to observe the number of their autonomic activity. The method was the same with that of Experiment 1. 100 mice with the number of autonomic activity between 70˜140 were screened out, divided randomly into 10 groups, and intragastrically administrated with the drug compounds at a dose listed in Table 4, one time daily for 7 days consecutively. The mice in the normal group and the solvent control group were administrated with 2% Tween-80 aqueous solution in the same volume. Except the normal control group, 30 min after the last administration, each group was injected intraperitoneally with reserpine at a dose of 4 mg/kg. Next, akinesia, blepharoptosis and shell temperature were observed. Observation method was the same with that of Experiment 1.

C57BL/6 mice [4] = assay: Number of autonomic activity of mice (YLS-1A autonomic activity recorder); conditions: for Effect on autonomic activity of mice (in words): 10 mg/kg intragastric, one week, compared with the solvent control group; for Number of Autonomic activity (time): 10 mg/kg intragastric once daily, counted 30 min after administration at 6th day
Description: 110 mice were randomly selected to observe the number of their autonomic activity. The mice was placed into the YLS-1A multi-functional mice autonomic activity recorder, and after 1 min of adaption, the mice's activity was counted within a time period from the end of 1st min to 4th min. 96 mice with the number of autonomic activity between 70˜140 were screened out, divided randomly into 8 groups, and intragastrically administrated with the drug compounds at a dose listed in Table 1, one time daily for 7 days consecutively. The solvent control group was administrated with 2% Tween-80 aqueous solution in the same volume. All mice were placed into the autonomic activity recorder 30 min after administration at 6th day. After 1 min of adaption, the mice's activity was counted within a time period from the end of 1st min to 4th min.
as §1

mice = assay: Anti-depression effect in the tested models (overall conclusion); conditions: in the tested model at the tested dose
Text: Based on the aforesaid experiments, the following conclusion can be drawn: • 1.

[5] = Experiment 1, end of 1st min to 4th min
[6] = 10 mg/kg, compared with I-1, p<0.05

SMILES | Effect on immobility time in tail suspension test (in words) (C57BL/6 mice [1]) | Immobility time in the forced swimming test in mice(s) (C57BL/6 mice [2]) | Blepharoptosis, “out-of-circle” ratio and shell temperature after reserpine (effect in words) (C57BL/6 mice [3]; hydrochloride) | Change in the shell temperature (ΔT ° C.) (C57BL/6 mice [3]; Experiment 1) [°C] | Degree of eye-closure (C57BL/6 mice [3]; Experiment 1) | Change in the shell temperature (T ° C.) (C57BL/6 mice [3]; Experiment 2) [°C] | Degree of eye-closure (C57BL/6 mice [3]; Experiment 2) | responders at 10 mg/kg (C57BL/6 mice [3]; Experiment 1) [%] | responders at 10 mg/kg (C57BL/6 mice [3]; Experiment 2) [%] | Effect on autonomic activity of mice (in words) (C57BL/6 mice [4]) | Number of Autonomic activity (time) (C57BL/6 mice [4]; [5]) | Number of Autonomic activity (time) (C57BL/6 mice [4]; Experiment 2) | Blepharoptosis, “out-of-circle” ratio and shell temperature after reserpine (effect in words) (C57BL/6 mice [3]) | Degree of eye closure / blepharoptosis after reserpine compared with I-1 (in words) (C57BL/6 mice [3]; 10 mg/kg) | Anti-depression effect compared with the pharmacologic effect of I-1 (in words) (mice) | Blepharoptosis, shell temperature and “out-of-circle” ratio compared with Compound I-1 (in words) (C57BL/6 mice [3]; 10 mg/kg) | Improving akinesia, blepharoptosis and shell temperature: ranking among the tested compounds (in words) (C57BL/6 mice [3]; 10 mg/kg) | Effect on antagonizing immobility in tail suspension test compared with I-1 (in words) (C57BL/6 mice [1]; [6]) | “out-of-circle” ratio after reserpine compared with I-1 (in words) (C57BL/6 mice [3]; [6])
CNCCC(Oc1ccc(C(F)(F)F)cc1)c1ccccc1 (centres unmarked) [fluoxetine hydrochloride, Fluoxetine hydrochloride, reference compound] | reduce the immobility time in tail suspension test significantly | 98.96 ± 32.43 | obviously increase mice “out-of-circle” ratio and shell temperature, and significantly reduce the degree of eye closure of the mice; also recorded: improve the “out-of-circle” ratio obviously, and significantly reduce the degree of eye closure and raise the shell temperature | 1.89 ± 0.21 | 1.42 ± 1.38**Δ | 29.20 ± 0.54 | 2.00 ± 1.33 | 58 | 50 | had no effect | 121.75 ± 24.14 | 102.0 ± 14.91 | – | – | – | – | – | – | –
CCN(CC)C(=O)/C=C/c1cc2c(c(C(F)(F)F)c1)OCO2 [Compound I-9, N,N-diethyl-5′-trifluoromethyl-3′,4′-methylenedioxy cinnamamide] | reduce the immobility time of the mice in tail suspension test significantly; also recorded: significantly shorten the immobility time | – | – | – | – | 28.70 ± 1.78 | 1.80 ± 1.23 | – | 30 | had no effect | – | 83.60 ± 22.68 | remarkably improve; also recorded: antagonizing the decrease of shell temperature, akinesia and improving the degree of eye closure | increased improvement | increased to some degree | – | – | – | –
CC(C)CNC(=O)CCc1cc2c(c(C(F)(F)F)c1)OCO2 [Compound I-11, N-isobutyl-3-(5′-trifluoromethyl-3′,4′-methylenedioxyphenyl)-propionamide] | reduce the immobility time of the mice in tail suspension test significantly; also recorded: significantly shorten the immobility time | – | – | – | – | 30.20 ± 0.95 | 1.40 ± 0.97 | – | 50 | had no effect | – | 86.60 ± 23.08 | remarkably improve; also recorded: antagonizing the decrease of shell temperature, akinesia and improving the degree of eye closure | – | increased to some degree | significantly improved effect | better effects | – | –
CC(C)CNC(=O)c1cc2c(c(C(F)(F)F)c1)OCO2 [Compound I-12, N-isobutyl-5-trifluoromethyl-3,4-methylenedioxy benzamide] | reduce the immobility time of the mice in tail suspension test significantly; also recorded: significantly shorten the immobility time | – | – | – | – | 30.65 ± 1.16 | 1.50 ± 1.18 | – | 70 | had no effect | – | 93.20 ± 19.54 | remarkably improve; also recorded: antagonizing the decrease of shell temperature, akinesia and improving the degree of eye closure | – | increased to some degree | significantly improved effect | better effects | – | –
CC(C)CNC(=O)/C=C/c1cc(Cl)c2c(c1)OCO2 [Compound I-4, N-isobutyl-5′-chloro-3′,4′-methylenedioxy cinnamamide] | remarkably reduce the immobility time; also recorded: significantly shorten the immobility time | – | – | 1.51 ± 0.31 | 0.17 ± 0.39**^ΔΔ | – | – | 100 | – | had no affect | 94.75 ± 28.53 | – | improved significantly; also recorded: antagonizing the decrease of shell temperature, akinesia and improving the degree of eye closure | reduced | increased to some degree | – | best effect | better effect | increased markedly
